Experimental data from US8846655B2, “4-substituted-2-phenoxy-phenylamine delta opioid receptor modulators” (Janssen Pharmaceutica, NV, priority 2009, dated 2014).

How the values were obtained:
mu opioid receptor = target: T1, mu opioid receptor (Rattus norvegicus, UniProt P33535); experiment: Rat brain mu opioid receptor binding assay; conditions: rat forebrain membranes, ~0.8 nM [3H]DAMGO; read-out: μ-binding Ki
T1 construct: the forebrains were homogenized in Tris buffer in a Teflon®-glass homogenizer; from tissue; host or cells: rat forebrain membrane homogenate (male Wistar rats)
Protocol: Procedure: Male, Wistar rats (150-250 g, VAF, Charles River, Kingston, N.Y.) were killed by CO2, and their brains were removed and placed immediately in ice cold Tris HCl buffer (50 mM, pH 7.4). The forebrains were separated from the remainder of the brain by a coronal transection, beginning dorsally at the colliculi and passing ventrally through the midbrain-pontine junction. After dissection, the forebrains were homogenized in Tris buffer in a Teflon®-glass homogenizer. The homogenate was diluted to a concentration of 1 g of forebrain tissue per 80 mL Tris and centrifuged at 39,000×g for 10 min. The pellet was resuspended in the same volume of Tris buffer containing 5 mM MgCl2 with several brief pulses from a Polytron homogenizer. This particulate preparation was used for the mu opioid binding assays.

delta opioid receptor [1] = target: T2, delta opioid receptor (Mus musculus, UniProt P32300); experiment: [35S]GTPγS binding assay in NG108-15 cell membranes (delta opioid functional assay), 200 nM screen; assay type: biochemical; conditions: 200 nM compound; relative to calculated max of SNC80 dose response
T2 construct: NG108-15 cell membranes were purchased from Applied Cell Sciences (Rockville, Md.); host or cells: NG108-15 cell membranes (purchased)
Protocol: Methods: NG108-15 cell membranes were purchased from Applied Cell Sciences (Rockville, Md.). 5 mg/mL of membrane protein suspended in 10 mM TRIS-HCl pH 7.2, 2 mM EDTA, 10% sucrose. Membranes were maintained at 4-8° C. A 1 mL volume of membranes was added into 10 mL cold binding assay buffer. The assay buffer contained 50 mM Tris, pH 7.6, 5 mM MgCl2, 100 mM NaCl, 1 mM DTT and 1 mM EGTA. The membrane suspension was homogenized twice with a Polytron, and centrifuged at 3000 rpm for 10 min. The supernatant was then centrifuged at 18,000 rpm for 20 min. Ten mL assay buffer was added into the pellet containing tube. The pellet and buffer were mixed with a Polytron.
Incubation procedure: The pellet membranes (75 μg/mL) were preincubated with SPA (10 mg/mL) at 25° C. for 45 min in the assay buffer. The SPA (5 mg/mL) coupled with membranes (37.5 μg/mL) was then incubated with 0.1 nM [^35S] GTPγS in the same Tris buffer containing 100 μM GDP in total volume of […]. 200 nM of receptor agonists was used to stimulate [^35S]-GTPγS binding. The basal binding was tested in the absence of agonists and non-specific binding was tested in the presence of 10 μM unlabeled GTPγS.
Data % of Basal=(stimulated−non specific)*100/(basal−non specific). Relative Efficacy of a compound at 200 nM=(% of Basal of test compound at 200 nM)/(Calculated Max of SNC80 dose response. Curve in prism).

δ-opioid receptor = target: T3, δ-opioid receptor (Mus musculus, UniProt P32300); experiment: [35S]GTPγS δ-opioid receptor functional assay (EC50, relative efficacy, % inhibition); assay type: biochemical
T3 construct: NG108-15 cell membranes were purchased from Applied Cell Sciences (Rockville, Md.)
Protocol: Incubation procedure: The pellet membranes (75 μg/mL) were preincubated with SPA (10 mg/mL) at 25° C. for 45 min in the assay buffer. […] GTPγS in the same Tris buffer containing 100 μM GDP in total volume of 200 pt. 200 nM of receptor agonists was used to stimulate [^35S]-GTPγS binding. The basal binding was tested in the absence of agonists and non-specific binding was tested in the presence of 10 μM unlabeled GTPγS.
Compounds were tested for function as antagonists by evaluating their potential to inhibit agonist-stimulated GTPγS binding. Radioactivity was quantified on a Packard TopCount.

mice = experiment: Mouse Graded Abdominal Irritant Test (GrAIT); assay type: in vivo; conditions: 10% Solutol, 30 min pretreatment
Protocol: Test compound or vehicle was administered s.c. or p.o. to mice. Following the pretreatment time, an i.p. injection of 0.6% of acetic acid in 0.5 mL was administered. Five min after acetic acid administration, mice were placed into clear chambers and were continuously observed for 5 min. Behavioral responses including twisting and elongation of the body that extended through the hindlimbs were counted and averaged for the group of animals over the observation period.

delta opioid receptor [2] = target: T4, delta opioid receptor (Rattus norvegicus, UniProt P33533); experiment: Rat brain delta opioid receptor binding assay; conditions: rat forebrain membranes, 0.25 nM [3H]naltrindole; read-out: δ-binding (Naltrindole ligand) Ki
T4 construct: the forebrains were homogenized in Tris buffer in a Teflon®-glass homogenizer; from tissue; host or cells: rat forebrain membrane homogenate (male Wistar rats)
Protocol: Procedure: Male, Wistar rats (150-250 g, VAF, Charles River, Kingston, N.Y.) were killed by CO2, and their brains were removed and placed immediately in ice cold Tris HCl buffer (50 mM, pH 7.4). The forebrains were separated from the remainder of the brain by a coronal transection, beginning dorsally at the colliculi and passing ventrally through the midbrain-pontine junction. After dissection, the forebrains were homogenized in Tris buffer in a Teflon®-glass homogenizer. The homogenate was diluted to a concentration of 1 g of forebrain tissue per 80 mL Tris and centrifuged at 39,000×g for 10 min. The pellet was resuspended in the same volume of Tris buffer containing 5 mM MgCl2 with several brief pulses from a Polytron homogenizer. […] To each sample area 2×50 μL of Betaplate Scint scintillation fluid (LKB) was added and the radioactivity was quantified on a LKB (Wallac) 1205 BetaPlate liquid scintillation counter.
Analysis: The data from the scintillation counter were used to calculate either the % inhibition compared to control binding (when only a single concentration of test compound was evaluated) or a K1 value (when a range of concentrations was tested). Percent inhibition was calculated as: [(total dpm-test compound dpm)/(total dpm-nonspecific dpm)]*100. Kd and Ki values were calculated using GraphPad PRISM data analysis program.

T3 sequence (P32300 whole entry): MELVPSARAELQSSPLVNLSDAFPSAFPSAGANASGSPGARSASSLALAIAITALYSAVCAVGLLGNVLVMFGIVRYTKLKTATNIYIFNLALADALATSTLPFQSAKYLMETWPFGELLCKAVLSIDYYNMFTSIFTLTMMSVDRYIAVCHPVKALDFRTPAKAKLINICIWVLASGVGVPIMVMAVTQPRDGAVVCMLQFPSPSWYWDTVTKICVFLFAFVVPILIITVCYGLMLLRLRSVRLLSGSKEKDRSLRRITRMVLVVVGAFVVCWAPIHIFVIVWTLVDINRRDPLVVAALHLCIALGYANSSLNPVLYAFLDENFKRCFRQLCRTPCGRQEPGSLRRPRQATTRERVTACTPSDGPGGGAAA
T2 sequence (P32300 whole entry): as above
T1 sequence (P33535 whole entry): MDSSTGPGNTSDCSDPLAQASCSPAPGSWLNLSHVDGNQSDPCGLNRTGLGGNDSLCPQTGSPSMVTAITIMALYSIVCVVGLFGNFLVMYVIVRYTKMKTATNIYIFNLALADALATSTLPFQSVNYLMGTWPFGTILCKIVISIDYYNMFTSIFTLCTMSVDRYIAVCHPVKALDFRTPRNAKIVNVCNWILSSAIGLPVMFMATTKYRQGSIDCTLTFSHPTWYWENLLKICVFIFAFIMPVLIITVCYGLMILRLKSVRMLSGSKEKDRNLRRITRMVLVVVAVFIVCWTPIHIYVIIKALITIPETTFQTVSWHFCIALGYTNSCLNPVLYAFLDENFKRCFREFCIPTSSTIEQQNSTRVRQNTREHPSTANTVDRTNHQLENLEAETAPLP
T4 sequence (P33533 whole entry): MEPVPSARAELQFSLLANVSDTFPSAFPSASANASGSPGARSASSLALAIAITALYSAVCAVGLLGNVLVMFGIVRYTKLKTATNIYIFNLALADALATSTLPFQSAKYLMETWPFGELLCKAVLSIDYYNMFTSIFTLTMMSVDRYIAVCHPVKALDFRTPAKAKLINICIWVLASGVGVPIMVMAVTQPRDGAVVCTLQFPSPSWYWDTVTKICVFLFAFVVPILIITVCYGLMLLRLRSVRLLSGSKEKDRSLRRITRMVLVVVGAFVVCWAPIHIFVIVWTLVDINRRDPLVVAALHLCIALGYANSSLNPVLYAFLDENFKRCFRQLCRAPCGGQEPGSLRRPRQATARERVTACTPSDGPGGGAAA

| SMILES | Ki (mu opioid receptor) | GTγPS δ-opioid receptor Rel Efficacy (δ-opioid receptor) | also measured |
| --- | --- | --- | --- |
| COc1ccc(Oc2ccc(NC[C@@H](N)CO)c(Oc3ccc(OC)cc3)c2)cc1 [Cpd 55] | > 10 µM | – | – |
| COc1ccc(Oc2cc(CCc3ccccc3)ccc2NC[C@@H]2CCCN2)cc1 [Cpd 5] | > 10 µM | – | – |
| O=C(O)c1cccc(Oc2cc(-c3ccccc3)ccc2NC[C@@H]2CCCN2)c1 [Cpd 32] | > 10 µM | – | – |
| COc1ccc(Oc2cc(-c3cncc(C#N)c3)ccc2NC[C@@H]2C[C@@H](F)CN2)cc1 [Cpd 24, (2S,4R)-5-[4-[(4-Fluoro-pyrrolidin-2-ylmethyl)-amino]-3-(4-methoxy-phenoxy)-phenyl]-nicotinonitrile] | – | 1.0158 | GTPγS δ-RelEfficacy @200 nM (delta opioid receptor [1]): 1.01 |
| COc1ccc(Oc2cc(-c3cccnc3)ccc2NC[C@@H]2CCCN2)cc1 [Cpd 39] | – | 0.9245 | – |
| COc1cccc(Oc2cc(-c3ccccc3)ccc2NC[C@@H]2CCCN2)c1 [Cpd 15] | > 10 µM | – | – |
| COc1ccc(Oc2cc(-c3cncc(F)c3)ccc2NC[C@@H]2C[C@@H](F)CN2)cc1 [Cpd 25] | – | 1.0217 | GTPγS δ-RelEfficacy @200 nM (delta opioid receptor [1]): 0.78 |
| COc1ccc(Oc2cc(-c3cncc(SC)c3)ccc2NC[C@@H]2C[C@@H](F)CN2)cc1 [Cpd 26] | – | 1.0716 | GTPγS δ-RelEfficacy @200 nM (delta opioid receptor [1]): 0.7 |
| COc1ccc(Oc2cc(-c3ccsc3)ccc2NC[C@@H]2CCCN2)cc1 [Cpd 41] | > 10 µM | – | – |
| CCN(CC)C(=O)c1ccc(NC[C@@H]2CCCN2)c(Oc2ccc(OC)cc2)c1 [Cpd 10] | – | – | # abdominal stretches (cpd) (mice; 30 mg/kg p.o.): 19; # abdominal stretches (cpd) (mice; 30 mg/kg s.c.): 11; # abdominal stretches (cpd) (mice; 100 mg/kg p.o.): 17.9; # abdominal stretches (cpd) (mice; 300 mg/kg p.o.): 21.2 |
| COc1ccc(Oc2cc(-c3ccccc3)ccc2N2CCNCC2)cc1 [Cpd 46, 1-[3-(4-Methoxy-phenoxy)biphenyl-4-yl]piperazine] | > 10 µM | – | – |
| COc1ccc(Oc2cc(-c3ccoc3)ccc2NC[C@@H]2CCCN2)cc1 [Cpd 40] | > 10 µM | – | – |
| Oc1ccc(Oc2cc(-c3cccnc3)ccc2NC[C@@H]2CCCN2)cc1 [Cpd 45, (S)-4-{5-Pyridin-3-yl-2-[(pyrrolidin-2-ylmethyl)-amino]-phenoxy}-phenol] | – | 0.627 | – |
| COc1ccc(Oc2cc(-c3ccccc3)ccc2NC[C@@H]2CCCN2)cc1 [Cpd 35, (S)-[3-(4-Methoxy-phenoxy)-biphenyl-4-yl]-pyrrolidin-2-ylmethyl-amine] | > 10 µM | – | – |
| COc1ccc(Oc2cc(CCc3cccc(F)c3)ccc2NC[C@@H]2CCCN2)cc1 [Cpd 7] | > 10 µM | – | – |
| COc1ccc(Oc2cc(-c3ccncc3)ccc2NC[C@@H]2CCCN2)cc1 [Cpd 38] | 4.36 µM | 0.8323 | Ki (delta opioid receptor [2]): 0.0155 µM; EC50 (δ-opioid receptor): 0.478 µM; inhibition at 10 µM (δ-opioid receptor; read-out: GTPγS δ-opioid receptor % Inh @10 μM): 16.4% |
| COc1ccc(Oc2cc(-c3cncc(C)c3)ccc2NC[C@@H]2C[C@@H](F)CN2)cc1 [Cpd 28] | – | 0.8756 | – |
| CCN(CC)C(=O)c1ccc(NC[C@@H]2CCCN2)c(Oc2ccccc2OC)c1 [Cpd 11] | > 10 µM | – | – |
| COc1ccc(Oc2cc(-c3cncc(OC)c3)ccc2NC[C@@H]2C[C@@H](F)CN2)cc1 [Cpd 27] | > 10 µM | – | – |

| SMILES | Ki (mu opioid receptor) | GTγPS δ-opioid receptor Rel Efficacy (δ-opioid receptor) | also measured |
| --- | --- | --- | --- |
| NC(=O)c1cccc(Oc2cc(-c3ccccc3)ccc2NC[C@@H]2CCCN2)c1 [Cpd 30] | – | 0.2668 | – |
| COc1ccc(Oc2cc(-c3cncnc3)ccc2NC[C@@H]2CCCN2)cc1 [Cpd 42] | – | – | GTPγS δ-RelEfficacy @200 nM (delta opioid receptor [1]): 0.39 |
| COC(=O)c1cccc(Oc2cc(-c3ccccc3)ccc2NC[C@@H]2CCCN2)c1 [Cpd 21] | > 10 µM | – | – |
| COc1ccc(Oc2cc(-c3cncc(C#N)c3)ccc2NC[C@@H]2CCCN2)cc1 [Cpd 44] | – | 1.1554 | GTPγS δ-RelEfficacy @200 nM (delta opioid receptor [1]): 0.45 |
| CCN(CC)C(=O)/C=C/c1ccc(NC[C@@H]2CCCN2)c(Oc2ccc(OC)cc2)c1 [Cpd 1, (2E)-N,N-Diethyl-3-[3-(4-methoxyphenoxy)-4-{[(2S)-pyrrolidin-2-ylmethyl]amino}phenyl]prop-2-enamide] | – | 0.8328 | # abdominal stretches (cpd) (mice; 30 mg/kg s.c.): 10.9 |
| N#Cc1cccc(Oc2cc(-c3ccccc3)ccc2NC[C@@H]2CCCN2)c1 [Cpd 13] | > 10 µM | – | – |
| Fc1ccc(Oc2cc(-c3ccccc3)ccc2NC[C@@H]2CCCN2)cc1 [Cpd 16] | > 10 µM | – | – |
| COC(=O)c1ccc(Oc2cc(-c3ccccc3)ccc2NC[C@@H]2CCCN2)cc1 [Cpd 20] | > 10 µM | – | – |
| CCN(CC)C(=O)c1cccc(Oc2cc(-c3ccccc3)ccc2NC[C@@H]2CCCN2)c1 [Cpd 34] | > 10 µM | – | – |
| Clc1ccc(Oc2cc(-c3ccccc3)ccc2NC[C@@H]2CCCN2)c(Cl)c1 [Cpd 22] | > 10 µM | – | – |
| COc1ccc(Oc2cc(-c3cncc(F)c3)ccc2NC[C@@H]2CCCN2)cc1 [Cpd 43] | – | 1.0908 | GTPγS δ-RelEfficacy @200 nM (delta opioid receptor [1]): 0.43 |
| CCN(CC)C(=O)CCc1ccc(NC[C@@H]2CCCN2)c(Oc2ccc(OC)cc2)c1 [Cpd 2, N,N-Diethyl-3-[3-(4-methoxyphenoxy)-4-{[(2S)-pyrrolidin-2-ylmethyl]amino}phenyl]propanamide] | – | 0.8333 | – |
| COc1ccc(Oc2cc(CCc3cccc(OC)c3)ccc2NC[C@@H]2CCCN2)cc1 [Cpd 4] | > 10 µM | – | – |
| c1ccc(Oc2cc(-c3ccccc3)ccc2NC[C@@H]2CCCN2)cc1 [Cpd 14] | > 10 µM | – | – |
| COc1ccc(Oc2cc(-c3cccc4ccccc34)ccc2NC[C@@H]2CCCN2)cc1 [Cpd 37] | > 10 µM | – | – |
| FC(F)(F)Oc1ccc(Oc2cc(-c3ccccc3)ccc2NC[C@@H]2CCCN2)cc1 [Cpd 17] | > 10 µM | – | – |
| CNCCNc1ccc(Oc2ccc(OC)cc2)cc1Oc1ccc(OC)cc1 [Cpd 63, N-[2,4-Bis-(4-methoxy-phenoxy)-phenyl]-N′-methyl-ethane-1,2-diamine] | > 10 µM | – | – |
| Clc1cccc(Cl)c1Oc1cc(-c2ccccc2)ccc1NC[C@@H]1CCCN1 [Cpd 18] | > 10 µM | 0.763 | – |
| COc1ccc(Oc2cc(CCc3ccc(F)cc3)ccc2NC[C@@H]2CCCN2)cc1 [Cpd 6] | > 10 µM | – | – |
